From patent US9643967B2, “Pyrrolo[3,2-c]pyridine derivatives as TLR inhibitors” (TAKEDA PHARMACEUTICAL COMPANY LIMITED, priority 2013, dated 2017)
Where two headings read alike, the source gives them in different places.

Biological target: T1, mTLR7 (Mus musculus, UniProt P58681)
T1 construct: Splenocytes isolated from male C57/BL6 mice; from tissue; host or cells: splenocytes from the spleen of male C57BL/6 mice
T1 sequence (P58681 27-1050): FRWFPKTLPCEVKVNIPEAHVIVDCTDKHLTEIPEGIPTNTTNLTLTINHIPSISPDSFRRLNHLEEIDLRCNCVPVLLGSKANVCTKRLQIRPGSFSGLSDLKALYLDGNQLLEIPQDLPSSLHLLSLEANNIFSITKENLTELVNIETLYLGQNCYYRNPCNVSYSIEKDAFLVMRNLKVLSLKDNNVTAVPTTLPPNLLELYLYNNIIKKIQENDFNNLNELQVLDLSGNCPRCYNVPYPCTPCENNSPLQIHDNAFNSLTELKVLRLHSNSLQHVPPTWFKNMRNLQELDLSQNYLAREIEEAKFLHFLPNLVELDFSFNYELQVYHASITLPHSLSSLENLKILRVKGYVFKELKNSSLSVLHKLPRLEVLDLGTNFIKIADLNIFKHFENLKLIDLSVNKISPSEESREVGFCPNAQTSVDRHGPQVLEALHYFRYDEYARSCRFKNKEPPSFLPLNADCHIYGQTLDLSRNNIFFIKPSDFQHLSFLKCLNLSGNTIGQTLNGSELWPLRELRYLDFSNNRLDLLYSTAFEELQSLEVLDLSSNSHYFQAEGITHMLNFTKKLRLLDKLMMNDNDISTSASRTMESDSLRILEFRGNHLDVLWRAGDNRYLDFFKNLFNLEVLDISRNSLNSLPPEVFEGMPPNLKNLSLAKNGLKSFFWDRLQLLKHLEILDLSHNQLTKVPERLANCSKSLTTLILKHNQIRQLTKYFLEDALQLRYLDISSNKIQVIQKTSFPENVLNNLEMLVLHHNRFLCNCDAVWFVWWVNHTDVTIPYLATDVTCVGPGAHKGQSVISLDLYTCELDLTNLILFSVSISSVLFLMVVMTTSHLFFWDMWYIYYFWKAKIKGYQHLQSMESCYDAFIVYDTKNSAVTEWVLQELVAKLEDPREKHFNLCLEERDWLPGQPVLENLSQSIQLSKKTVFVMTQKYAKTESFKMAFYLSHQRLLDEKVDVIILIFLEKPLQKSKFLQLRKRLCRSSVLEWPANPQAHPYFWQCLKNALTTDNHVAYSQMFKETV
Test: mTLR7 antagonism (IL-6 and TNF-α release assay) in mouse splenocytes, R0006/DOTAP stimulated
Assay type: cell-based
Description: mTLR9 and mTLR7 Antagonism (Cytokine Release Assay) in Mouse Splenocytes
TLR7 ligand R0006 (IDT, 5′-rU*rU*rG*rU*rU*rG*rU*rU*rG*rU*rU*rG*rU*rU*rG*rU*rU*rG*rU*rU-3′ (SEQ ID NO:1)), Liposomal transfection reagent—DOTAP (Roche, Cat. No. 11202375001), TLR9 ligand CpG ODN2006 (Sequence: T*C*G*T*C*G*T*T*T*T*G*T*C*G*T*T*T*T*G*T*C*G*T*T; *=phosphorothioate (SEQ ID NO:2)) DMSO (Sigma, D2650), RPMI Powder (Sigma, R6504), Fetal Bovine Serum (Gibco, 10270), Dulbecco's Phosphate Buffered Saline (Sigma, D1408), 96 well plate (Flat bottom, Costar 3599), ELISA kit for IL-6 (EBioscience, 88-7064-77 and TNFa (EBioscience, 88-7346-88), MACS Buffer (AutoMACS Rinsing Solution (Miltenyl Biotec, 130-091-222)+0.05% BSA), RBC lysis buffer (0.85% NH4Cl), 40 μm cell strainer (BD Falcon, 352340) Method: A. Isolation of Mouse Splenocytes
Mouse spleen was isolated from C57BL6 mouse and stored in 1× chilled PBS buffer until further processed. Spleen was transferred to a sterile petriplate and chopped in to 5-6 pieces in presence of MACS buffer (100 μl) with the help of fresh surgical blade and crushed with flat plunger of a sterile syringe. A uniform suspension was prepared by passing cells through a 40 μm cell strainer. Cells were centrifuged at 450×g for 5 minutes at 4° C., supernatant was discarded and pellet dislodged gently, resuspended in 2 ml of pre-warmed (37° C.) RBC lysis buffer at room temperature with continuous gentle mixing with 1 ml pipette. Lysis buffer was neutralized with 12 ml of chilled MACS buffer and cells were passed through 40 μm cell strainer. Cell suspension was collected in 15 ml MACS buffer and centrifuged at 450×g for 5 minutes at 4° C. Pellet was resuspended in 15 ml MACS buffer and centrifuged at 400×g for 5 minutes. Cells were resuspended in 10 ml of RPMI complete medium and viability was estimated by Trypan blue method.
mTLR7 Antagonism (IL-6 and TNF-α Release Assay):
1 mg/ml stock of R0006 was prepared in sterile, endotoxin-free water. R0006 stock was diluted 10 fold with DOTAP and incubated for 30 minutes to form liposome complex (100 μg/ml of R0006). This complex was further diluted 10 fold with incomplete RPMI media (10 μg/ml of R0006) to achieve the final agonist concentration of 1 μg/ml. DOTAP alone was diluted 10 fold in incomplete RPMI media. NCEs were added in a concentration range of 30 μM to 1 nM in respective wells of assay plate, assay medium containing 0.3% DMSO were added to control wells. 0.2 million splenocytes were added to all the wells and incubated at 37° C. in 5% CO2 incubator for 30 minutes. 1 μg/ml of respective agonist was added to all the wells except those were assigned as negative controls and mixed thoroughly. DOTAP was added to negative control wells and incubated overnight at 37° C./5% CO2. The plate was centrifuged at 450×g for 5 minutes at room temperature and the supernatant was collected. ELISA was performed as per manufacturer's protocol. S/B Ratio, % Activity and % Inhibition was calculated using MS Excel. IC50 and inhibition curve was generated using Graph Pad Prism.

[1] = 1 μM, TNF-α release, mouse splenocytes, read-out: mTLR7 inhibitory activity (% at 1 μM), TNF-α
[2] = 1 μM, IL-6 release, mouse splenocytes, read-out: mTLR7 inhibitory activity (% at 1 μM), IL-6

inhibition at 1 µM [1] | inhibition at 1 µM [2] | SMILES | inhibition at 1 µM (read-out: mTLR7 inhibitory activity (% at 1 μM), IL-6) | inhibition at 1 µM (read-out: mTLR7 inhibitory activity (% at 1 μM), TNF-α)
32% | – | CC(C)N1CCN(c2ccc(-c3nccc4[nH]c(CN5CCC[C@@H]5C(=O)O)cc34)cc2)CC1 [Example A74, (2R)-1-[[4-[4-(4-isopropylpiperazin-1-yl)phenyl]-1H-pyrrolo[3,2-c]pyridin-2-yl]methyl]pyrrolidine-2-carboxylic acid] | – | –
16% | 18% | CC(C)N1CCN(C2CCC(c3nccc4[nH]c(CN5CCOCC5)cc34)CC2)CC1 (centres unmarked) [Example A80, 4-[[4-[4-(4-isopropylpiperazin-1-yl)cyclohexyl]-1H-pyrrolo[3,2-c]pyridin-2-yl]methyl]morpholine] | – | –
24% | 25% | c1cc2[nH]c(CN3CCOCC3)cc2c(-c2ccc(N3CCN(C4COC4)CC3)cc2)n1 [Example A81, 4-[[4-[4-[4-(oxetan-3-yl)piperazin-1-yl]phenyl]-1H-pyrrolo[3,2-c]pyridin-2-yl]methyl]morpholine] | – | –
– | – | CC(C)N1CCN(c2ccc(-c3nccc4[nH]c(C(=O)N5CCOCC5)cc34)cc2)CC1 [Example A82, [4-[4-(4-isopropylpiperazin-1-yl)phenyl]-1H-pyrrolo[3,2-c]pyridin-2-yl]-morpholino-methanone] | 86% | 24%
100% | 100% | CC(C)N1CCN(c2ccc(-c3nccc4[nH]c(CCN5CCOCC5)cc34)cc2)CC1 [Example B1, 4-[2-[4-[4-(4-isopropylpiperazin-1-yl)phenyl]-1H-pyrrolo[3,2-c]pyridin-2-yl]ethyl]morpholine] | – | –
100% | 100% | CN1CCN(c2ccc(-c3nccc4[nH]c(CCN5CCOCC5)cc34)cc2)CC1 [Example B2, 4-[2-[4-[4-(4-methylpiperazin-1-yl)phenyl]-1H-pyrrolo[3,2-c]pyridin-2-yl]ethyl]morpholine] | – | –
100% | – | Cc1cc2[nH]c(CCN3CCOCC3)cc2c(-c2ccc(N3CCN(C(C)C)CC3)cc2)n1 [Example B3, 4-[2-[4-[4-(4-isopropylpiperazin-1-yl)phenyl]-6-methyl-1H-pyrrolo[3,2-c]pyridin-2-yl]ethyl]morpholine] | – | –
100% | – | Cc1cc2[nH]c(CCN3CCOCC3)cc2c(-c2ccc(N3CCN(C)CC3)cc2)n1 [Example B4, 4-[2-[6-methyl-4-[4-(4-methylpiperazin-1-yl)phenyl]-1H-pyrrolo[3,2-c]pyridin-2-yl]ethyl]morpholine] | – | –
100% | – | Cc1cc2[nH]c(CCN3CCCCC3)cc2c(-c2ccc(N3CCN(C(C)C)CC3)cc2)n1 [Example B5, 4-[4-(4-isopropylpiperazin-1-yl)phenyl]-6-methyl-2-[2-(1-piperidyl)ethyl]-1H-pyrrolo[3,2-c]pyridine] | – | –
100% | 100% | Cc1nc(-c2ccc(N3CCN(C(C)C)CC3)cc2)c2cc(CCN3CCOCC3)[nH]c2c1C [Example B6, 4-[2-[4-[4-(4-isopropylpiperazin-1-yl)phenyl]-6,7-dimethyl-1H-pyrrolo[3,2-c]pyridin-2-yl]ethyl]morpholine] | – | –
100% | – | Cc1nc(-c2ccc(N3CCN(C)CC3)cc2)c2cc(CCN3CCOCC3)[nH]c2c1C [Example B7, 4-[2-[6,7-dimethyl-4-[4-(4-methylpiperazin-1-yl)phenyl]-1H-pyrrolo[3,2-c]pyridin-2-yl]ethyl]morpholine] | – | –
88% | – | CCN1CCN(c2ccc(-c3nc(C)c(C)c4[nH]c(CCN5CCOCC5)cc34)cc2)CC1 [Example B8, 4-[2-[4-[4-(4-ethylpiperazin-1-yl)phenyl]-6,7-dimethyl-1H-pyrrolo[3,2-c]pyridin-2-yl]ethyl]morpholine] | – | –
100% | 100% | Cc1nc(-c2ccc(N3CCN(C(C)C)CC3)cc2)c2cc(CCN3CCCC3)[nH]c2c1C [Example B10, 4-[4-(4-isopropylpiperazin-1-yl)phenyl]-6,7-dimethyl-2-(2-pyrrolidin-1-ylethyl)-1H-pyrrolo[3,2-c]pyridine] | – | –
100% | 100% | Cc1cc2c(cc(CCN3CCOCC3)n2C)c(-c2ccc(N3CCN(C(C)C)CC3)cc2)n1 [Example B11, 4-[2-[4-[4-(4-isopropylpiperazin-1-yl)phenyl]-1,6-dimethyl-pyrrolo[3,2-c]pyridin-2-yl]ethyl]morpholine] | – | –
100% | 100% | Cc1cc2c(cc(CCN3CCOCC3)n2C)c(-c2ccc(N3CCN(C(C)C)CC3)c(F)c2)n1 [Example B14, 4-[2-[4-[3-fluoro-4-(4-isopropylpiperazin-1-yl)phenyl]-1,6-dimethyl-pyrrolo[3,2-c]pyridin-2-yl]ethyl]morpholine] | – | –
83% | 88% | Cc1cc2c(cc(CCN3CCOCC3)n2C)c(-c2ccc(N3CCN(C(C)C)CC3)cc2C)n1 [Example B15, 4-[2-[4-[4-(4-isopropylpiperazin-1-yl)-2-methyl-phenyl]-1,6-dimethyl-pyrrolo[3,2-c]pyridin-2-yl]ethyl]morpholine] | – | –
100% | 100% | Cc1cc2c(cc(CCN3CCOCC3)n2C)c(-c2ccc(N3CCN(C(C)C)CC3)c(C)c2)n1 [Example B16, 4-[2-[4-[4-(4-isopropylpiperazin-1-yl)-3-methyl-phenyl]-1,6-dimethyl-pyrrolo[3,2-c]pyridin-2-yl]ethyl]morpholine] | – | –
90% | 93% | Cc1cc2c(cc(CCN3CCOCC3)n2C)c(-c2ccc(N3CCN(C(C)C)CC3)cc2C(F)(F)F)n1 [Example B17, 4-[2-[4-[4-(4-isopropylpiperazin-1-yl)-2-(trifluoromethyl)phenyl]-1,6-dimethyl-pyrrolo[3,2-c]pyridin-2-yl]ethyl]morpholine] | – | –
100% | 100% | Cc1cc2c(cc(CCN3CCOCC3)n2C)c(-c2ccc(N3CCN(C(C)C)CC3)c(C(F)(F)F)c2)n1 [Example B18, 4-[2-[4-[4-(4-isopropylpiperazin-1-yl)-3-(trifluoromethyl)phenyl]-1,6-dimethyl-pyrrolo[3,2-c]pyridin-2-yl]ethyl]morpholine] | – | –
